Converted amounts (≈) assume the structure as drawn. Counter-ions that a name gives are not always drawn. The source made the active and inactive calls. No cut-off for these calls is given here.
Tests used:
[1] = system: Staphylococcus epidermidis; test: Growth inhibition of Staphylococcus epidermidis; assay type: functional, organism-based
L5178Y [2] = test: Growth inhibition of mouse L5178Y cells at […] after 72 hrs by MTT assay relative to untreated control; assay type: functional; design: dose or concentration left out as unconfirmed; conditions: values are per cent of control
L5178Y [3] = test: Cytotoxicity against mouse L5178Y cells after 72 hrs by MTT assay; assay type: functional, cell-based
[4] = system: Staphylococcus epidermidis; test: Antibacterial activity against Staphylococcus epidermidis; assay type: functional
[5] = system: Staphylococcus epidermidis; test: Antibacterial activity against Staphylococcus epidermidis assessed as inhibition of biofilm formation after 18 hrs by adherent assay; assay type: functional, organism-based
Amphibalanus improvisus [6] = test: Antifouling activity against Balanus improvisus […] larvae assessed as inhibition of cyprid larval settlement at 0.1 uM to 100 uM; assay type: functional, organism-based
Amphibalanus improvisus [7] = test: Toxicity against Balanus improvisus […] larvae assessed as cyprid larval death at 0.1 uM to 100 uM; assay type: ADME, organism-based; conditions: in vivo
[8] = Staphylococcus epidermidis, read-out: MIC

Structure (SMILES)	growth inhibition (GI) [1]	growth, % of control (L5178Y [2]) [%]	IC50 (L5178Y [3]) [µM]	MIC [4, 8] [µM]	inhibition [5]	MIC [4] [µM]	inhibition (Amphibalanus improvisus [6])	Activity (Amphibalanus improvisus [7])
CN(C)CCc1ccc(OCCCNC(=O)c2cc(Br)c[nH]2)c(I)c1 [AGELANESIN B]	inactive	2.3	9.25	> 38	inactive			
NC1=N[C@@]23CCCN2C(=O)c2cc(Br)c(Br)n2[C@H]3N1 [DIBROMPHAKELLIN HYDROCHLORIDE]				> 47				
Cn1c(C(=O)N2CCC(O)=C3N=C(N)N=C32)cc(Br)c1Br [AGELANIN A]	inactive	98.9		> 48	inactive			
NC1=N[C@@]23CCCN2C(=O)c2cc(Br)c(Br)n2[C@H]3N1 [DIBROMPHAKELLIN]						>51		
NC1=N[C@@]23CCCN2C(=O)c2cc(Br)c(Br)n2[C@H]3N1	inactive				inactive			
O=C1NCC(O)n2cc(Br)cc21 (configuration not stated)	inactive	78.5	> 43.2	> 87	inactive			
NC1=N[C@@]23CCCN2C(=O)c2cc(Br)c(Br)n2[C@]3(O)N1 [DIBROMOHYDROXYPHAKELLIN HYDROCHLORIDE]	inactive	113		> 45	inactive			
CN1C(=O)NC(CCCNC(=O)c2cc(Br)c(Br)n2C)C1=O (configuration not stated) [MIDPACAMIDE]	inactive	46.7		> 46	inactive			
Cn1c(C(=O)NCCCC(=O)O)cc(Br)c1Br	inactive	108		> 54	inactive			
CC1=CCC[C@@H](C)[C@]1(C)CC/C(C)=C/CC/C(C)=C/CS(=O)(=O)CCNC(=N)N [AGELASIDINE C]	inactive	37.4		5.9 (≈ 2.5 µg/mL)	inactive			
CN(C)CCc1ccc(OCCCNC(=O)c2cc(Br)c[nH]2)c(Br)c1 [AGELANESIN A]	inactive	-0.5	9.55	> 42	inactive			
C=C1CC[C@@H]2C(C)(C)CCC[C@@]2(C)[C@@H]1CC/C(C)=C/Cn1c[n+](C)c2ncnc(N)c21.[Cl-] [AGELASINE D]	inactive	1.9	4.03	< 0.0877	inactive		Dose-dependent effect	Toxic
Cn1c(C(=O)NCCCC2(NCCS(=O)(=O)O)NC(=N)NC2=O)cc(Br)c1Br (configuration not stated) [MAURITAMIDE B]	inactive	92.5		> 37	inactive			
COC(=O)c1cc(Br)c(Br)n1C	inactive	83.4		> 67	inactive			
CN(C)CCc1ccc(OCCCNC(=O)c2cc(Br)c(Br)[nH]2)c(I)c1 [AGELANESIN D]	inactive	-2.3	13.1	> 33	inactive			
CC(=O)C(O)(CCCNC(=O)c1cc(Br)c(Br)n1C)CC(=O)O (configuration not stated) [AGELANIN B]	inactive	92.8		> 44	inactive			
C=C1CC[C@@H]2C(C)(C)CCC[C@@]2(C)[C@@H]1CC/C(C)=C/C[n+]1cn(C)c2nc[nH]/c(=N\O)c21.[Cl-]	inactive	4.2	12.5	> 45	Active		Dose-dependent effect	Toxic
Cn1c(C(=O)O)cc(Br)c1Br	inactive	87.8		> 71	inactive			
CCN1C(=N)NC(=O)C1(CCCNC(=O)c1cc(Br)c(Br)n1C)NCCS(=O)(=O)O (configuration not stated) [MAURITAMIDE C]	inactive	98.6		> 35	inactive			
Cn1c(C(=O)NCCS(=O)(=O)O)cc(Br)c1Br [MAURITAMIDE D]	inactive	118		> 52	inactive			
CN(C)CCc1ccc(OCCCNC(=O)c2cc(Br)c(Br)[nH]2)c(Br)c1 [AGELANESIN C]	inactive	0.8	16.8	> 36	inactive			

Source: ChEMBL document CHEMBL1156839, “From anti-fouling to biofilm inhibition: new cytotoxic secondary metabolites from two Indonesian Agelas sponges” (Bioorg Med Chem, 2010)
